Patent US10830762B2, “Compositions and methods for inducing conformational changes in cereblon and other E3 ubiquitin ligases” (Celgene Corporation, priority 2015, dated 2020)

Tests used:
[1] = test system: TMD8 (ABC) or Karpas 422 (GCB) cells; experiment: 3H-thymidine incorporation proliferation assay with lenalidomide co-treatment; assay type: cell-based; conditions: co-treatment with 10 μM lenalidomide; 3H-thymidine incorporation
[2] = test system: panel of tumor cell lines (B-lymphoma, breast, CNS, colon, kidney, leukemia, lung, melanoma, multiple myeloma, ovary, prostate); experiment: Potency across a panel of tumor cell lines; assay type: cell-based
Experimental: The potency of Compound C was assessed across a panel of tumor cell lines, including B-lymphoma, breast, CNS, colon, kidney, leukemia, lung, melanoma, multiple myeloma, ovary and prostate.

[3] = test system: DF15 / DF15R myeloma cells; experiment: Cell proliferation assay of DF15, DF15R and DF15R re-expressing CRBN treated with Compound C; assay type: cell-based
Experimental: (§1) Immunoblot analysis of extracts prepared from U266 multiple myeloma cells and pre-incubated with vehicle DMSO (D), Pomalidomide (Pom) or Compound C at the indicated concentrations, and bound to thalidomide analog affinity beads, washed and eluted with SDS buffer as previously described (Ito et al, 2010; Lopez-Girona et al, 2012). Samples were subjected to SDS-PAGE and immunoblot analysis using anti-CRBN 65-76 (1:10,000 dilution; Red signal) and anti-DDB1 (Cell Signaling) (1:2,000 dilution; Green signal). […] Cell proliferation assay of DF15 (sensitive), DF15R (resistant; CRBNnull) cells treated with a dose response of Compound C. Assays were done in triplicate and error bars represent s.d. Data for each cell line was normalized to treatment with vehicle (DMSO). […] Cell proliferation assay of DF15 (sensitive), DF15R (resistant; CRBNnull), DF15R-hCRBNWT (human CRBN), DF15R-RFP cells treated with a dose response of Compound C. […] Assays were done in triplicate and error bars represent s.d. Data for each cell line was normalized to treatment with vehicle (DMSO).

GSPT1 [4] = target: T1, GSPT1 (Homo sapiens, UniProt P15170+Q96SW2); experiment: GSPT1 degradation in HEK293T cells transfected with wild-type or mutant CRBN; assay type: cell-based; conditions: murine CRBN V377E
T1 construct: endogenous in cells; host or cells: HEK293T cells
Description: (§2) A key feature of immunomodulatory drug biology is the striking resistance observed in rodent species. This feature was historically a confounding factor in establishing the efficacy and safety risks associated with thalidomide. It was shown that, in contrast to human cereblon, murine cereblon is unable to rescue immunomodulatory drug sensitivity. Chamberlain et al., Nature structural & mole. biol. 2014, 21:803-809. It was proposed that the molecular basis for this would lie in two variable residues on the cereblon surface proximal to the tri-Tryp pocket, E377V and V388I. […] Kronke et al., Nature 2015, 523:183-188. Despite the potent effect seen on human cells, murine cells are resistant to the antiproliferative and pro-apoptotic effects of Compound C (data not shown). […] The dependence of GSPT1 degradation upon E377 can be rationalized by the crystal structure: the side chain of E377 mediates hydrogen bond interactions with the urea moiety of Compound C.

GSPT1 [5] = target: T2, GSPT1 (Homo sapiens, UniProt P15170+Q96SW2, V100A); experiment: as above; assay type: cell-based; conditions: human WT CRBN
T2 construct: endogenous in cells; host or cells: HEK293T cells
Description: as §2

GSPT1 [6] = target: T3, GSPT1 (Homo sapiens, UniProt P15170+Q96SW2, E377V/V100A); experiment: as above; assay type: cell-based; conditions: human CRBN E377V
T3 construct: endogenous in cells; host or cells: HEK293T cells
Description: as §2

GSPT1 [7] = target: T4, GSPT1 (Homo sapiens, UniProt P15170+Q96SW2, V100A/V388I); experiment: as above; assay type: cell-based; conditions: human CRBN V388I
T4 construct: endogenous in cells; host or cells: HEK293T cells
Description: as §2

CRBN-GSPT1 = experiment: Compound-induced interaction (in vitro binding) of CRBN with GSPT1; set-up: species or system human
Description: (§3) FIG. 28A illustrates a full-length human GSPT1 and a truncated mutant form, which lacks the N-terminal 138 amino acid residues. […] Thus, the truncated mutant human GSPT1 maintained the functionality of the full-length protein and can be used in studies below.
(§4) To further map the essential amino acid residues in this 32-amino acid fragment of human GSPT1, various point mutations within the fragment were generated and tested for Compound C-induced degradation of GSPT1 and Compound C-induced interaction between CRBN and GSPT1. […] Among these homologues, only the yeast SUP35 is resistant to Compound C. […] Other mutations, […].

[8] = test system: MDA-MB-231 breast cancer cells; experiment: Growth inhibition and pro-apoptotic activity in breast cancer cells treated with CRBN siRNA; assay type: cell-based; conditions: CRBN siRNA vs negative control
Experimental: Breast cancer cells (MDA-MB-231) were treated with CRBN siRNA or a negative control. Compound C was added at a concentration between 0 to 100 μM, and CRBN levels were assessed at 48 hours post treatment.
Compound C-mediated growth inhibition and pro-apoptotic activity were also assessed.

murine cells = experiment: Antiproliferative and pro-apoptotic effects on murine cells; assay type: cell-based; conditions: murine cells (data not shown)
Description: as §2

CRBN = CRBN (Homo sapiens, UniProt Q96SW2); experiment: Thalidomide analog affinity bead competition assay in U266 cell extracts; assay type: binding; set-up: endogenous in cells; host or cells: U266 multiple myeloma cells (extract); conditions: competition with thalidomide analog affinity beads
Experimental: as §1
Coupling of thalidomide analog to FG-magnetic nanoparticle beads (Tamagawa Seiko Co. Tokyo, Japan) was carried out as described (Ito et al., Science, 2010. 327(5971):1345-50), and cell extract binding assays to these beads were performed with minor modifications. […]

[9] = test system: human GSPT1 (G575N mutation); experiment: Growth inhibition and activation of ATF4 and apoptosis pathways with GSPT1 G575N mutation; assay type: cell-based
IKZF1 = target: T5, IKZF1 (Homo sapiens, UniProt Q13422+Q96SW2); experiment: IKZF1 degradation in HEK293T cells co-transfected with wild-type or mutant CRBN; assay type: cell-based
T5 construct: expressed in transfected cells; host or cells: HEK293T cells

[10] = test system: H929 multiple myeloma cell line; experiment: Apoptosis in multiple myeloma cell line H929; assay type: cell-based; conditions: 0.01 nM to 1000 nM; assessed 24 hrs later
Experimental: The multiple myeloma cell line, H929, was cultured and treated with Compound C or other CMA analogs at various concentrations from 0.01 nM to 1000 nM. Apoptosis was assessed at 24 hrs. later.

yeast homologue SUP35 = yeast homologue SUP35 (Saccharomyces cerevisiae, UniProt P05453); experiment: Compound-induced degradation of yeast homologue SUP35; assay type: cell-based; conditions: yeast SUP35, in contrast to human GSPT1
human GSPT1 [11] = target: T6, human GSPT1 (Homo sapiens, UniProt P15170); experiment: Compound-induced GSPT1 degradation by Western blot in 293T HEK cells; assay type: cell-based; conditions: full-length and truncated (lacking N-terminal 138 residues) GSPT1
T6 construct: expressed in transfected cells; host or cells: 293T HEK cells
Description: as §3
(§5) To determine the critical region in the human GSPT1 that contributes to the Compound C-induced degradation, a plethora of chimeric constructs containing various domains of human GSPT1 and yeast SUP35 were generated (FIG. 30A). These recombinant proteins were tested for Compound C-induced degradation by Western blot (FIGS. 30B-30D). As the results shown, a 32-amino acid fragment in the C-terminus of human GSPT1 (residues 562-593) is critical for Compound C-induced degradation.
as §4

human GSPT1 [12] = target: T7, human GSPT1 (Homo sapiens, UniProt P15170, G437N); experiment: as above; assay type: cell-based; conditions: GSPT1 G575N mutation
T7 construct: expressed in transfected cells; host or cells: 293T HEK cells
Description: as §3, §5, §4

Cc1ccc(NC(=O)NCc2ccc3c(c2)CN(C2CCC(=O)NC2=O)C3=O)cc1Cl (stereo not drawn) [Compound C, 1-(3-chloro-4-methylphenyl)-3-((2-(2,6-dioxopiperidin-3-yl)-1-oxoisoindolin-5-yl)methyl)urea]
anti-proliferative effects on co-treatment with lenalidomide [1]: blocks anti-proliferative effects | Therapeutic Index ([2]; across the cancer cell panel): overall low Therapeutic Index | potency / activity in tumor cell lines ([2]; panel of tumor cell lines): potent across a panel of tumor lines | CRBN dependence of anti-proliferative activity ([3]; DF15 (sensitive) vs DF15R (CRBN null)): CRBN is required for the anti-proliferative activity | anti-proliferative activity after re-expression of human CRBN ([3]; DF15R-hCRBNWT): rescues Compound C anti-proliferative activity | GSPT1 degradation (GSPT1 [4]): restores GSPT1 degradation | GSPT1 degradation (GSPT1 [5]): degradation of both IKZF1 and GSPT1 | GSPT1 degradation (GSPT1 [6]): blocks the degradation of GSPT1 | GSPT1 degradation (GSPT1 [7]): maintained | interaction between CRBN and GSPT1 (CRBN-GSPT1; GSPT1 G575N mutation): blocked Compound C-induced interaction between CRBN and GSPT1 | interaction of CRBN with GSPT1 (CRBN-GSPT1; full-length and truncated GSPT1): induced interaction of CRBN with the full-length GSPT1 as well as the truncated GSPT1 | CRBN dependence of growth inhibition and pro-apoptotic activity [8]: CRBN is required for both inhibition and pro-apoptotic activity | antiproliferative and pro-apoptotic effects (murine cells): resistant | binding to CRBN protein in MM cell extracts (CRBN): binds CRBN protein | growth inhibition and downstream activation of ATF4 and apoptosis pathways [9]: blocked Compound C-induced growth inhibition and Compound C-induced downstream activation of ATF4 and apoptosis pathways | IKZF1 degradation (IKZF1; human CRBN V388I): blocks the degradation of IKZF1 | IKZF1 degradation (IKZF1; human WT CRBN): degradation of both IKZF1 and GSPT1 | early apoptosis [10]: induced early apoptosis | SUP35 degradation (yeast homologue SUP35): did not exhibit Compound C-induced degradation | GSPT1 degradation (human GSPT1 [11]): induced degradation of the full-length GSPT1 and the truncated form | GSPT1 degradation (human GSPT1 [12]): blocked Compound C-induced degradation
